Measurements as given in patent US9611267B2, “Substituted tricyclic compounds as FGFR inhibitors” (Incyte Corporation, priority 2012, dated 2017).

Assays:
Format in all cases: biochemical
FGFR2 = FGFR2 (Homo sapiens (Human), UniProt P21802); experiment: FGFR enzymatic assay (FRET peptide phosphorylation), FGFR2; settings: FGFR2 enzyme 0.01 nM, ATP 100 μM
Summary of the method: (§1)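 IC50 values were obtained from variable-slope sigmoidal dose-response fitting of a FRET read-out of peptide phosphorylation. The buffer, described for FGFR3, was 50 mM HEPES pH 7.5 with MgCl2, EGTA, Tween-20 and DTT.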

FGFR3 = FGFR3 (Homo sapiens (Human), UniProt P22607); experiment: FGFR enzymatic assay (FRET peptide phosphorylation), FGFR3; settings: FGFR3 enzyme (Millipore), ATP 140 μM
Summary of the method: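 After 5-10 min pre-incubation of FGFR3 with serially diluted compound in pH 7.5 HEPES/MgCl2/EGTA/DTT buffer, the reaction proceeded 1 hr at 25° C. Phosphorylated peptide was detected by FRET, and IC50 was fitted with a variable-slope sigmoid.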

FGFR1 = FGFR1 (Homo sapiens (Human), UniProt P11362); experiment: FGFR enzymatic assay (FRET peptide phosphorylation), FGFR1; settings: FGFR1 enzyme 0.02 nM, ATP 210 μM
Summary of the method: as §1

Chain of FGFR3 (P22607 23-806): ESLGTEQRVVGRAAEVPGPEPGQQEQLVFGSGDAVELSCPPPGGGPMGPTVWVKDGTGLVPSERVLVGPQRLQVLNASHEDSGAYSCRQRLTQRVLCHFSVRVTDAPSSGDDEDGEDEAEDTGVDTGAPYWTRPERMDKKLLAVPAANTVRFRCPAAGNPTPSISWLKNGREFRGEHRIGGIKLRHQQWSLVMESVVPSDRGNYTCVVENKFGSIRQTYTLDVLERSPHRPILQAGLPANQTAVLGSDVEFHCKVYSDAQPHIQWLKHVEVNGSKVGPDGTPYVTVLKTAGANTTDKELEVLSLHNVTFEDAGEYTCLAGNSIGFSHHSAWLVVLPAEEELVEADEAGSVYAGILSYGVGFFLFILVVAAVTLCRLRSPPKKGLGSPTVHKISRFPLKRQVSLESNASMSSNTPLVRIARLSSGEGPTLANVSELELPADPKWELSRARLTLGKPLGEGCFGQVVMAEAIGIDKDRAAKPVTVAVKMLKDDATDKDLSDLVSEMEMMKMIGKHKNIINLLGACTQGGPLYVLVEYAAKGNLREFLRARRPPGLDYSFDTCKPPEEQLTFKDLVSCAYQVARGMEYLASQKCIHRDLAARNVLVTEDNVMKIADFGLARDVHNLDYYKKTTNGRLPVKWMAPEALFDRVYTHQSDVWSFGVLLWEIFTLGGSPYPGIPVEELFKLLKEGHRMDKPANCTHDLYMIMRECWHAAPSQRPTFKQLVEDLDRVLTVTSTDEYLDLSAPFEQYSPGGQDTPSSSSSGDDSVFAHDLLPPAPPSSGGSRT
Chain of FGFR2 (P21802 22-821): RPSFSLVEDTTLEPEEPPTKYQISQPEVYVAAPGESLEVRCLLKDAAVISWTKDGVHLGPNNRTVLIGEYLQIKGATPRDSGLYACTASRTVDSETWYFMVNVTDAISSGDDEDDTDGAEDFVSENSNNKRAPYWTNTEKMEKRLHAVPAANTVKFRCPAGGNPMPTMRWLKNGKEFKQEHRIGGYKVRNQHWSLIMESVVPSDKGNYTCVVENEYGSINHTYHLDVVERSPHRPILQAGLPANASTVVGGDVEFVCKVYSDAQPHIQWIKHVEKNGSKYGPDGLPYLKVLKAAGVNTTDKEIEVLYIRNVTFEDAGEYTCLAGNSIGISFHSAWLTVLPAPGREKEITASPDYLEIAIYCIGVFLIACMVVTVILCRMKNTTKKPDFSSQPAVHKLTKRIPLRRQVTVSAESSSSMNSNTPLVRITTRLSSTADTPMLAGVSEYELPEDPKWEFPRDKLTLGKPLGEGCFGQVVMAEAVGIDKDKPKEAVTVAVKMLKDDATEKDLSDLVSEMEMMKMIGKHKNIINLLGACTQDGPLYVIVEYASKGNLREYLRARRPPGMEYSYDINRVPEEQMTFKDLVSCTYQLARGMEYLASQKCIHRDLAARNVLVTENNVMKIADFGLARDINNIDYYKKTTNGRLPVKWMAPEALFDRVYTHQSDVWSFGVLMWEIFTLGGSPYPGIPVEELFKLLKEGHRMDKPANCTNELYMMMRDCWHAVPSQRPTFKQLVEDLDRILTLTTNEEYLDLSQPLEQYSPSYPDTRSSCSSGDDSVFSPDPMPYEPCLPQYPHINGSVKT
Chain of FGFR1 (P11362 22-822): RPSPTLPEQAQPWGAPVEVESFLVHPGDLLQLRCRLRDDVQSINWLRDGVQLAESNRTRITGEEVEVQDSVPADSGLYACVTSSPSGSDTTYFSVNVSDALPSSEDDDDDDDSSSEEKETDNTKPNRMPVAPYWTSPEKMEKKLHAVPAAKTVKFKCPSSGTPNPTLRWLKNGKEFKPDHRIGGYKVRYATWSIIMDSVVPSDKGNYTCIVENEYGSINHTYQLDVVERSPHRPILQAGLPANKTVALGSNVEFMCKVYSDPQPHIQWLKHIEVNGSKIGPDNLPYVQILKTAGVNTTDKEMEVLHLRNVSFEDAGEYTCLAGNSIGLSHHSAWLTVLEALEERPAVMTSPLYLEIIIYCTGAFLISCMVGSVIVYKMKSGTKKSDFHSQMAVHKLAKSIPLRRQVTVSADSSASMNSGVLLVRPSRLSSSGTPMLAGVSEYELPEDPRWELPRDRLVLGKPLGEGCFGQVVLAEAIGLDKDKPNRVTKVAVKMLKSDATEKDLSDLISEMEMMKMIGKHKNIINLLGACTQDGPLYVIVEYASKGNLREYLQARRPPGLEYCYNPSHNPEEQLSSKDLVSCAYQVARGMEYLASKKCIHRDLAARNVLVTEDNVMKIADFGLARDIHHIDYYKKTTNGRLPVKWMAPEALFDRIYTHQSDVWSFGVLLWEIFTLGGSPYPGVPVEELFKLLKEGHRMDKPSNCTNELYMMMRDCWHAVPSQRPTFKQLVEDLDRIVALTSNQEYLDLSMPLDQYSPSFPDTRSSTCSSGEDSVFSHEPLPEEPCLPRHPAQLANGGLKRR

IC50 (FGFR2) [nM]	IC50 (FGFR3) [nM]	IC50 (FGFR1) [nM]	SMILES
< 100	< 100	< 100	COc1cc(OC)c(F)c(N2Cc3cnc4[nH]ncc4c3N(CCO)C2=O)c1F [Example 58, 3-(2,6-Difluoro-3,5-dimethoxyphenyl)-1-(2-hydroxyethyl)-1,3,4,7-tetrahydro-2H-pyrazolo[4′,3′:5,6]pyrido[4,3-d]pyrimidin-2-one]
< 100	< 100	< 100	COc1cc(OC)c(F)c(N2Cc3cnc4[nH]ncc4c3N(CCc3ccccn3)C2=O)c1F [Example 169, 3-(2,6-Difluoro-3,5-dimethoxyphenyl)-1-(2-pyridin-2-ylethyl)-1,3,4,7-tetrahydro-2H-pyrazolo[4′,3′:5,6]pyrido[4,3-d]pyrimidin-2-one]
< 100	< 100	< 100	COc1cc(OC)c(F)c(N2Cc3cnc4[nH]ncc4c3N(Cc3cocn3)C2=O)c1F [Example 161, 3-(2,6-Difluoro-3,5-dimethoxyphenyl)-1-(1,3-oxazol-4-ylmethyl)-1,3,4,7-tetrahydro-2H-pyrazolo[4′,3′:5,6]pyrido[4,3-d]pyrimidin-2-one]
< 100	< 100	< 100	COc1cc(OC)c(F)c(N2Cc3cnc4[nH]ccc4c3N(CCO)C2=O)c1F [Example 44, 3-(2,6-Difluoro-3,5-dimethoxyphenyl)-1-(2-hydroxyethyl)-1,3,4,7-tetrahydro-2H-pyrrolo[3′,2′:5,6]pyrido[4,3-d]pyrimidin-2-one]
< 100	< 100	< 100	COc1cc(OC)c(F)c(N2Cc3cnc4[nH]ncc4c3N([C@@H]3CCOC3)C2=O)c1F [Example 90, 3-(2,6-difluoro-3,5-dimethoxyphenyl)-1-[(3R)-tetrahydrofuran-3-yl]-1,3,4,7-tetrahydro-2H-pyrazolo[4′,3′:5,6]pyrido[4,3-d]pyrimidin-2-one]
< 100	< 100	< 100	COc1cc(OC)c(F)c(N2Cc3cnc4[nH]ccc4c3N(c3cccc(C#N)c3)C2=O)c1F [Example 82, 3-[3-(2,6-difluoro-3,5-dimethoxyphenyl)-2-oxo-2,3,4,7-tetrahydro-1H-pyrrolo[3′,2′:5,6]pyrido[4,3-d]pyrimidin-1-yl]benzonitrile]
< 100	< 100	< 100	COc1cc(OC)c(F)c(N2Cc3cnc4[nH]c(CCN5CCN(C)CC5)cc4c3N(c3ccccc3F)C2=O)c1F [Example 197, 3-(2,6-difluoro-3,5-dimethoxyphenyl)-1-(2-fluorophenyl)-8-[2-(4-methylpiperazin-1-yl)ethyl]-1,3,4,7-tetrahydro-2H-pyrrolo[3′,2′:5,6]pyrido[4,3-d]pyrimidin-2-one]
< 100	< 100	< 100	COc1cc(OC)c(F)c(N2Cc3cnc4c(c3N(c3ccc(C#N)cc3F)C2=O)CC(=O)N4)c1F [Example 125, 4-[3-(2,6-difluoro-3,5-dimethoxyphenyl)-2,8-dioxo-2,3,4,7,8,9-hexahydro-1H-pyrrolo[3′,2′:5,6]pyrido[4,3-d]pyrimidin-1-yl]-3-fluorobenzonitrile]
< 100	< 100	< 100	COc1cc(OC)c(F)c(N2Cc3cnc4[nH]c(CN5CCOCC5)cc4c3N(c3cccc(F)c3F)C2=O)c1F [Example 211, 3-(2,6-difluoro-3,5-dimethoxyphenyl)-1-(2,3-difluorophenyl)-8-(morpholin-4-ylmethyl)-1,3,4,7-tetrahydro-2H-pyrrolo[3′,2′:5,6]pyrido[4,3-d]pyrimidin-2-one]
< 100	< 100	< 100	COc1cc(OC)c(F)c(N2Cc3cnc4[nH]c(Cc5cnn(C)c5)cc4c3N(C)C2=O)c1F [Example 139, 3-(2,6-difluoro-3,5-dimethoxyphenyl)-1-methyl-8-[(1-methyl-1H-pyrazol-4-yl)methyl]-1,3,4,7-tetrahydro-2H-pyrrolo[3′,2′:5,6]pyrido[4,3-d]pyrimidin-2-one]

Second part, the molecule before the results:

SMILES	IC50 (FGFR2) [nM]	IC50 (FGFR3) [nM]	IC50 (FGFR1) [nM]
CNC(=O)c1cc2c3c(cnc2[nH]1)CN(c1cc(OC)cc(OC)c1)C(=O)N3C [Example 12, 3-(3,5-Dimethoxyphenyl)-N,1-dimethyl-2-oxo-2,3,4,7-tetrahydro-1H-pyrrolo[3′,2′:5,6]pyrido[4,3-d]pyrimidine-8-carboxamide]	< 100	< 100	< 100
CNC(=O)c1cc2c3c(cnc2[nH]1)CN(c1cc(OC)cc(OC)c1Cl)C(=O)N3C [Example 23, 3-(2-Chloro-3,5-dimethoxyphenyl)-N,1-dimethyl-2-oxo-2,3,4,7-tetrahydro-1H-pyrrolo[3′,2′:5,6]pyrido[4,3-d]pyrimidine-8-carboxamide]	< 100	< 100	< 100
COc1cc(OC)c(Cl)c(N2Cc3cnc4[nH]ncc4c3N(C3CCC3)C2=O)c1F [Example 102, 3-(2-chloro-6-fluoro-3,5-dimethoxyphenyl)-1-cyclobutyl-1,3,4,7-tetrahydro-2H-pyrazolo[4′,3′:5,6]pyrido[4,3-d]pyrimidin-2-one]	< 100	< 100	< 100
COc1cc(OC)c(F)c(N2Cc3cnc4[nH]c(CCN5CCOCC5)cc4c3N(C)C2=O)c1F [Example 114, 3-(2,6-difluoro-3,5-dimethoxyphenyl)-1-methyl-8-(2-morpholin-4-ylethyl)-1,3,4,7-tetrahydro-2H-pyrrolo[3′,2′:5,6]pyrido[4,3-d]pyrimidin-2-one]	< 100	< 100	< 100
COc1cc(OC)c(Cl)c(N2Cc3cnc4[nH]ncc4c3N(c3cnn(C)c3)C2=O)c1F [Example 145, 3-(2-chloro-6-fluoro-3,5-dimethoxyphenyl)-1-(1-methyl-1H-pyrazol-4-yl)-1,3,4,7-tetrahydro-2H-pyrazolo[4′,3′:5,6]pyrido[4,3-d]pyrimidin-2-one]	< 100	< 100	< 100
CCN1C(=O)N(c2c(F)c(OC)cc(OC)c2F)Cc2cnc3[nH]c(CCN4CC(F)C4)cc3c21 [Example 231, 3-(2,6-difluoro-3,5-dimethoxyphenyl)-1-ethyl-8-[2-(3-fluoroazetidin-1-yl)ethyl]-1,3,4,7-tetrahydro-2H-pyrrolo[3′,2′:5,6]pyrido[4,3-d]pyrimidin-2-one]	< 100	< 100	< 100
CCN1CCN(CCCc2cc3c4c(cnc3[nH]2)CN(c2c(F)c(OC)cc(OC)c2F)C(=O)N4C)CC1 [Example 72, 3-(2,6-difluoro-3,5-dimethoxyphenyl)-8-[3-(4-ethylpiperazin-1-yl)propyl]-1-methyl-1,3,4,7-tetrahydro-2H-pyrrolo[3′,2′:5,6]pyrido[4,3-d]pyrimidin-2-one]	< 100	< 100	< 100
COc1cc(OC)c(F)c(N2Cc3cnc4[nH]c(C(=O)N5CCC(C#N)C5)cc4c3N(C)C2=O)c1 (stereo not drawn) [Example 29, 1-{[3-(2-Fluoro-3,5-dimethoxyphenyl)-1-methyl-2-oxo-2,3,4,7-tetrahydro-1H-pyrrolo[3′,2′:5,6]pyrido[4,3-d]pyrimidin-8-yl]carbonyl}pyrrolidine-3-carbonitrile]	< 100	< 100	< 100
CCCN1C(=O)N(c2c(F)c(OC)cc(OC)c2F)Cc2cnc3[nH]c(CN4CCOCC4)cc3c21 [Example 184, 3-(2,6-difluoro-3,5-dimethoxyphenyl)-8-(morpholin-4-ylmethyl)-1-propyl-1,3,4,7-tetrahydro-2H-pyrrolo[3′,2′:5,6]pyrido[4,3-d]pyrimidin-2-one]	< 100	< 100	< 100
COc1cc(OC)c(F)c(N2Cc3cnc4[nH]c(CCN5CC(F)C5)cc4c3N(CCO)C2=O)c1F [Example 210, 3-(2,6-difluoro-3,5-dimethoxyphenyl)-8-[2-(3-fluoroazetidin-1-yl)ethyl]-1-(2-hydroxyethyl)-1,3,4,7-tetrahydro-2H-pyrrolo[3′,2′:5,6]pyrido[4,3-d]pyrimidin-2-one]	< 100	< 100	< 100
COc1cc(OC)c(F)c(N2Cc3cnc4[nH]c(CN5CCN(C)CC5)cc4c3N(C3CC3)C2=O)c1F [Example 187, 1-cyclopropyl-3-(2,6-difluoro-3,5-dimethoxyphenyl)-8-[(4-methylpiperazin-1-yl)methyl]-1,3,4,7-tetrahydro-2H-pyrrolo[3′,2′:5,6]pyrido[4,3-d]pyrimidin-2-one]	< 100	< 100	< 100
CCN1C(=O)N(c2c(F)c(OC)cc(OC)c2F)Cc2cnc3[nH]c(CN4CCN(C)CC4)cc3c21 [Example 127, 3-(2,6-difluoro-3,5-dimethoxyphenyl)-1-ethyl-8-[(4-methylpiperazin-1-yl)methyl]-1,3,4,7-tetrahydro-2H-pyrrolo[3′,2′:5,6]pyrido[4,3-d]pyrimidin-2-one]	< 100	< 100	< 100
COc1cc(OC)c(F)c(N2Cc3cnc4[nH]c(CCN5CCOCC5)cc4c3N(CCO)C2=O)c1F [Example 146, 3-(2,6-difluoro-3,5-dimethoxyphenyl)-1-(2-hydroxyethyl)-8-(2-morpholin-4-ylethyl)-1,3,4,7-tetrahydro-2H-pyrrolo[3′,2′:5,6]pyrido[4,3-d]pyrimidin-2-one]	< 100	< 100	< 100
COc1cc(OC)c(F)c(N2Cc3cnc4[nH]c(CCCN5CCN(C6CC6)CC5)cc4c3N(C)C2=O)c1F [Example 118, 8-[3-(4-cyclopropylpiperazin-1-yl)propyl]-3-(2,6-difluoro-3,5-dimethoxyphenyl)-1-methyl-1,3,4,7-tetrahydro-2H-pyrrolo[3′,2′:5,6]pyrido[4,3-d]pyrimidin-2-one]	< 100	< 100	< 100
